In US20260070945A1, “MACROCYCLIC IMMUNOMODULATORS” (Bristol-Myers Squibb Company, priority 2022, published 2026):
*1 amine or outer side, *2 acyl side, *3 side chain or, on linkers, in order; H or OH if unused. Where a SMILES comes first, the peptide text is derived from it. Bridges are numbered along the chain shown (N, C = ends). [ ]: non-standard residue; d: D form. The star is where a group is joined. ξ: configuration not given here. Phe(4-COOH) = N[C@@H](Cc1ccc(C(=O)O)cc1)C(=O)O; Bip = N[C@@H](Cc1ccc(-c2ccccc2)cc1)C(=O)O; Phe(3-Me) = Cc1cccc(C[C@H](N)C(=O)O)c1; βAsp = O=C(O)[C@H](CC(=O)[*:2])N[*:1]; Cyclopropanecarbonyl = O=C(C1CC1)*; Val(3-OH) = CC(C)(O)[C@H](N)C(=O)O; hArg = N=C(N)NCCCC[C@H](N)C(=O)O; hhGln = NC(=O)CCCC[C@H](N)C(=O)O; 4Pal = N[C@@H](Cc1ccncc1)C(=O)O; Cha = N[C@@H](CC1CCCCC1)C(=O)O; Cit = NC(=O)NCCC[C@H](N)C(=O)O; Ile(3ξ) = CCC(C)[C@H](N)C(=O)O; Thr(3ξ) = CC(O)[C@H](N)C(=O)O; hSer = N[C@@H](CCO)C(=O)O; Carboxymethyl = O=C(O)C*; NMeA = CN[C@@H](C)C(=O)O; Orn = NCCC[C@H](N)C(=O)O; Aun = NCCCCCCCCCCC(=O)O; Dab = NCC[C@H](N)C(=O)O; Dap = NC[C@H](N)C(=O)O; AEEA = NCCOCCOCC(=O)O

Biological target: T1, PD-1/PD-L1 interaction (PE-labeled human PD-L1-Ig binding to Jurkat cell line over-expressing human PD-1) (Homo sapiens, UniProt Q15116)
T1 construct: expressed in transfected cells; host or cells: Jurkat
T1 sequence (Q15116 25-288): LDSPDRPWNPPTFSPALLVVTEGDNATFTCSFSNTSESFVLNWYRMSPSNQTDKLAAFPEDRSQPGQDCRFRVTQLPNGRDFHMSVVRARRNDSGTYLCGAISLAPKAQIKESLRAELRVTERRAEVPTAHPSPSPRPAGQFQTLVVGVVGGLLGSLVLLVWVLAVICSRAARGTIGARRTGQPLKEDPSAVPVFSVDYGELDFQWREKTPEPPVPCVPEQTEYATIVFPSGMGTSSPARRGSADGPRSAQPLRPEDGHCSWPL
Test: Jurkat-PD-1 Cell Binding High-Content Screening Assay (CBA)
Conditions: Jurkat-hPD-1 cells, PE-labeled PD-L1-Ig 20 nM final; read-out: Jurkat HPD1 PDL1 IC50
Procedure, shortened: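 Cells 8×10^3/well, DMEM + 10% FCS; cpd 2 h, 37 °C; PE–PD-L1-Ig 20 nM final, 1 h; PFA fix + Hoechst 33342, 3× dPBS wash; high-content imager.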

Row | Structure (SMILES) | IC50 [nM]
1 | Cc1cccc(C[C@@H]2NC(=O)[C@H](CC(=O)O)NC(=O)[C@H](Cc3ccc(C(=O)O)cc3)NC(=O)[C@H](Cc3ccncc3)NC(=O)CSC[C@@H](C(=O)N[C@@H](CCN)C(=O)NCCOCCOCC(=O)NCCCCCCCCCCC(=O)O)NC(=O)[C@H](CCC(=O)O)NC(=O)[C@H](C(C)(C)O)NC(=O)[C@H](CC3CCCCC3)NC(=O)[C@H](CCN)NC(=O)[C@@H](CC(C)C)NC(=O)[C@H](C)N(C)C(=O)[C@H](Cc3ccc(OCC(=O)O)cc3)NC(=O)[C@H](Cc3ccc(-c4ccccc4)cc3)NC(=O)[C@H](Cc3ccc(OCC(=O)O)cc3)NC2=O)c1 [Example 1427] ({CH2CO}-[4Pal][Phe(4-COOH)]D[Phe(3-Me)]Y(Carboxymethyl)[Bip]Y(Carboxymethyl)[NMeA][dL][Dab][Cha][Val(3-OH)]EC[Dab][AEEA][Aun]-OH; thioether N-14) | 111
2 | Cc1cccc(C[C@@H]2NC(=O)[C@H](CC(=O)O)NC(=O)[C@H](Cc3ccc(C(=O)O)cc3)NC(=O)[C@H](Cc3ccc(OCC(=O)O)cc3)NC(=O)CSC[C@@H](C(=O)NCC(=O)N[C@@H](CC(=O)NCCOCCOCC(=O)N[C@@H](CC(=O)NCCCCCCCCCCC(=O)O)C(=O)O)C(=O)O)NC(=O)[C@H](CO)NC(=O)[C@H](C(C)C)NC(=O)[C@H](CC(C)C)NC(=O)[C@H](CC(N)=O)NC(=O)[C@@H](CC(C)C)NC(=O)[C@H](C)N(C)C(=O)[C@H](C(C)C)NC(=O)[C@H](Cc3ccc(-c4ccccc4)cc3)NC(=O)[C@H](CC(C)C)NC2=O)c1 [Example 1025] ({CH2CO}-Y(Carboxymethyl)[Phe(4-COOH)]D[Phe(3-Me)]L[Bip]V[NMeA][dL]NLVSCG[βAsp][AEEA][βAsp][Aun]-OH; thioether N-14) | 112
3 | Cc1cccc(C[C@@H]2NC(=O)[C@H](CC(=O)O)NC(=O)[C@H](Cc3ccc(OCC(=O)O)cc3)NC(=O)[C@H](C(C)O)NC(=O)CSC[C@@H](C(=O)NCCOCCOCC(=O)NCCCCCCCCCCC(=O)O)NC(=O)[C@H](C(C)O)NC(=O)[C@H](C(C)C)NC(=O)[C@H](CC3CCCCC3)NC(=O)[C@H](CCN)NC(=O)[C@@H](CC(C)C)NC(=O)[C@H](C)N(C)C(=O)[C@H](Cc3ccc(OCC(=O)O)cc3)NC(=O)[C@H](Cc3ccc(-c4ccccc4)cc3)NC(=O)[C@H](CCCCC(N)=O)NC2=O)c1 (stereo partly drawn) [Example 2345] ({CH2CO}-[Thr(3ξ)]Y(Carboxymethyl)D[Phe(3-Me)][hhGln][Bip]Y(Carboxymethyl)[NMeA][dL][Dab][Cha]V[Thr(3ξ)]C[AEEA][Aun]-OH; thioether N-14) | 67.5
4 | CCC(C)[C@@H]1NC(=O)[C@H](Cc2ccc(-c3ccccc3)cc2)NC(=O)[C@H](CC(C)C)NC(=O)[C@H](Cc2c[nH]c3ccccc23)NC(=O)[C@H](CC(=O)O)NC(=O)[C@H](Cc2ccc(OCC(=O)O)cc2)NC(=O)[C@H](Cc2ccc(OCC(=O)O)cc2)NC(=O)CSC[C@@H](C(=O)N[C@@H](CCN)C(=O)NCCOCCOCC(=O)NCCCCCCCCCCC(=O)O)NC(=O)[C@H](CO)NC(=O)[C@H](C(C)C)NC(=O)[C@H](CC(C)C)NC(=O)[C@H](CC(N)=O)NC(=O)[C@@H](CC(C)C)NC(=O)[C@H](C)N(C)C1=O (stereo partly drawn) [Example 2038] ({CH2CO}-Y(Carboxymethyl)Y(Carboxymethyl)DWL[Bip][Ile(3ξ)][NMeA][dL]NLVSC[Dab][AEEA][Aun]-OH; thioether N-14) | 29.6
5 | CCC(C)[C@@H]1NC(=O)[C@H](Cc2ccc(-c3ccccc3)cc2)NC(=O)[C@H](C(C)C)NC(=O)[C@H](Cc2c[nH]c3ccccc23)NC(=O)[C@H](CC(=O)O)NC(=O)[C@H](Cc2ccc(O)cc2)NC(=O)[C@H](CC(N)=O)NC(=O)CSC[C@@H](C(=O)N[C@H](CC(N)=O)C(=O)NCCOCCOCC(=O)NCCCCCCCCCCC(=O)O)NC(=O)[C@H](CO)NC(=O)[C@H](C(C)C)NC(=O)[C@H](CC(C)C)NC(=O)[C@H](CCN)NC(=O)[C@@H](CC(C)C)NC(=O)[C@H](C)N(C)C1=O (stereo partly drawn) [Example 2059] ({CH2CO}-NYDWV[Bip][Ile(3ξ)][NMeA][dL][Dab]LVSC[dN][AEEA][Aun]-OH; thioether N-14) | 34.2
6 | CC(C)C[C@H]1NC(=O)[C@H](C)N(C)C(=O)[C@H](Cc2ccc(OCC(=O)O)cc2)NC(=O)[C@H](Cc2ccc(-c3ccccc3)cc2)NC(=O)[C@H](Cc2ccc(OCC(=O)O)cc2)NC(=O)[C@H](Cc2c[nH]c3ccccc23)NC(=O)[C@H](CC(=O)O)NC(=O)[C@H](Cc2ccncc2)NC(=O)[C@H](Cc2ccc(OCC(=O)O)cc2)NC(=O)CSC[C@@H](C(=O)N[C@@H](CCN)C(=O)NCCCCCCCCCCC(=O)O)NC(=O)[C@H](CCCn2cc(CN(C)C(=O)c3ccc(F)cc3)nn2)NC(=O)[C@H](C(C)C)NC(=O)[C@H](CC2CCCCC2)NC(=O)[C@H](CCN)NC1=O [Example 1110] | 23.1
7 | Cc1cccc(C[C@@H]2NC(=O)[C@H](CC(=O)O)NC(=O)[C@H](Cc3ccc(C(=O)O)cc3)NC(=O)[C@H](Cc3ccc(OCC(=O)O)cc3)NC(=O)CSC[C@@H](C(=O)NCCOCCOCC(=O)NCCCCCCCCCCC(=O)O)NC(=O)[C@H](CCO)NC(=O)[C@H](C(C)C)NC(=O)[C@H](CC3CCCCC3)NC(=O)[C@H](CCN)NC(=O)[C@@H](CC(C)C)NC(=O)[C@H](C)N(C)C(=O)[C@H](CCCNC(N)=O)NC(=O)[C@H](Cc3ccc(-c4ccccc4)cc3)NC(=O)[C@H](C(C)C)NC2=O)c1 [Example 2317] ({CH2CO}-Y(Carboxymethyl)[Phe(4-COOH)]D[Phe(3-Me)]V[Bip][Cit][NMeA][dL][Dab][Cha]V[hSer]C[AEEA][Aun]-OH; thioether N-14) | 8.9

Next, values leading:

Row | IC50 [nM] | Structure (SMILES)
8 | 15.2 | Cc1cccc(C[C@@H]2NC(=O)[C@H](CC(=O)O)NC(=O)[C@H](Cc3ccc(O)cc3)NC(=O)[C@H](Cc3ccncc3)NC(=O)CSC[C@@H](C(=O)N[C@@H](CCN)C(=O)NCCCCCCCCCCC(=O)O)NC(=O)[C@H](CCCN)NC(=O)[C@H](C(C)C)NC(=O)[C@H](CC(C)C)NC(=O)[C@H](CCN)NC(=O)[C@@H](C)NC(=O)[C@H](C)N(C)C(=O)[C@H](C(C)C)NC(=O)[C@H](Cc3ccc(-c4ccccc4)cc3)NC(=O)[C@H](CC(C)C)NC2=O)c1 [Example 2201] ({CH2CO}-[4Pal]YD[Phe(3-Me)]L[Bip]V[NMeA][dA][Dab]LV[Orn]C[Dab][Aun]-OH; thioether N-14)
9 | 12.2 | CCC(C)[C@@H]1NC(=O)[C@H](Cc2ccc(-c3ccccc3)cc2)NC(=O)[C@H](C(C)C)NC(=O)[C@H](Cc2c[nH]c3ccccc23)NC(=O)[C@H](CC(=O)O)NC(=O)[C@H](Cc2ccc(O)cc2)NC(=O)[C@H](Cc2ccncc2)NC(=O)CSC[C@@H](C(=O)N[C@@H](CC(N)=O)C(=O)NCCOCCOCC(=O)N[C@@H](CCCN)C(=O)NCCCCCCCCCCC(=O)O)NC(=O)[C@H](CO)NC(=O)[C@H](C(C)C)NC(=O)[C@H](CC2CCCCC2)NC(=O)[C@H](CCN)NC(=O)[C@@H](CC(C)C)NC(=O)[C@H](C)N(C)C1=O (stereo partly drawn) [Example 2078] ({CH2CO}-[4Pal]YDWV[Bip][Ile(3ξ)][NMeA][dL][Dab][Cha]VSCN[AEEA][Orn][Aun]-OH; thioether N-14)
10 | 42.9 | Cc1cccc(C[C@@H]2NC(=O)[C@H](CC(=O)O)NC(=O)[C@H](Cc3ccc(OCC(=O)O)cc3)NC(=O)[C@H](CN)NC(=O)CSC[C@@H](C(=O)NCC(=O)N[C@@H](CC(=O)O)C(=O)NCCCCCCCCCCC(=O)O)NC(=O)[C@H](CO)NC(=O)[C@H](C(C)C)NC(=O)[C@H](CC(C)C)NC(=O)[C@H](CC(N)=O)NC(=O)[C@@H](CC(C)C)NC(=O)[C@H](C)N(C)C(=O)[C@H](C(C)C)NC(=O)[C@H](Cc3ccc(-c4ccccc4)cc3)NC(=O)[C@H](CC(C)C)NC2=O)c1 [Example 1061] ({CH2CO}-[Dap]Y(Carboxymethyl)D[Phe(3-Me)]L[Bip]V[NMeA][dL]NLVSCGD[Aun]-OH; thioether N-14)
11 | 16.6 | Cc1cccc(C[C@@H]2NC(=O)[C@H](CC(=O)O)NC(=O)[C@H](Cc3ccc(OCC(=O)O)cc3)NC(=O)[C@H](CCCCNC(=N)N)NC(=O)CSC[C@@H](C(=O)N[C@@H](CCN)C(=O)NCCCCCCCCCCC(=O)O)NC(=O)[C@H](C(C)O)NC(=O)[C@H](C(C)C)NC(=O)[C@H](CC3CCCCC3)NC(=O)[C@H](CCN)NC(=O)[C@@H](CC(C)C)NC(=O)[C@H](C)N(C)C(=O)[C@H](CCCNC(=O)C3CC3)NC(=O)[C@H](Cc3ccc(-c4ccccc4)cc3)NC(=O)[C@H](Cc3ccc(O)cc3)NC2=O)c1 (stereo partly drawn) [Example 2398] ({CH2CO}-[hArg]Y(Carboxymethyl)D[Phe(3-Me)]Y[Bip][Orn](Cyclopropanecarbonyl)[NMeA][dL][Dab][Cha]V[Thr(3ξ)]C[Dab][Aun]-OH; thioether N-14)

Same assay, conditions: PE-labeled PD-L1-Ig 20 nM final, Jurkat-hPD-1 cells; read-out: Jurkat HPD1 PDL1 IC50

Row | IC50 [nM] | Structure (SMILES)
12 | 40.6 | Cc1cccc(C[C@@H]2NC(=O)[C@H](CC(=O)O)NC(=O)[C@H](Cc3ccc(OCC(=O)O)cc3)NC(=O)[C@H](C(C)O)NC(=O)CSC[C@@H](C(=O)N[C@@H](CCN)C(=O)NCCOCCOCC(=O)NCCCCCCCCCCC(=O)O)NC(=O)[C@H](CCC(=O)O)NC(=O)[C@H](C(C)(C)O)NC(=O)[C@H](CC3CCCCC3)NC(=O)[C@H](CCN)NC(=O)[C@@H](CC(C)C)NC(=O)[C@H](C)N(C)C(=O)[C@H](Cc3ccc(OCC(=O)O)cc3)NC(=O)[C@H](Cc3ccc(-c4ccccc4)cc3)NC(=O)[C@H](Cc3ccc(OCC(=O)O)cc3)NC2=O)c1 (stereo partly drawn) [Example 2508] ({CH2CO}-[Thr(3ξ)]Y(Carboxymethyl)D[Phe(3-Me)]Y(Carboxymethyl)[Bip]Y(Carboxymethyl)[NMeA][dL][Dab][Cha][Val(3-OH)]EC[Dab][AEEA][Aun]-OH; thioether N-14)
